According to patent publication US20240216401A1, “COMBINATION THERAPY BY USING AKR1C3-ACTIVATED COMPOUND WITH IMMUNE CHECKPOINT INHIBITOR” (OBI Pharma, Inc., priority 2021, published 2024):
Where “and” joins values, the source holds several entries; their conditions need not be identical. Equal values may be shown once.

What was measured:
[1] = system: Calreticulin cells in tumor-infiltrating lymphocytes; assay: Example 2: flow cytometry, percentage of Calreticulin cells in TILs; type: in vivo, Mus musculus; settings: individual mice and group Mean; for CD45^− live cells (CD45^−ViaKrome405^weak) Cell count / Calreticulin cells (CD45^− Calreticulin^+) Cell count / Total CD45^− cells (CD45^−) Cell count: Cell count = Total cell × Total % × 10; for CD45^− live cells (CD45^−ViaKrome405^weak) CTL Gated % / CD45^− live cells (CD45^−ViaKrome405^weak) Total % / Calreticulin cells (CD45^− Calreticulin^+) CTL Gated % / Calreticulin cells (CD45^− Calreticulin^+) Total % / Total CD45^− cells (CD45^−) CD45^+ Gated % / Total CD45^− cells (CD45^−) Total %: TILs from tumor
Experimental: (§1) Mice were sacrificed by CO2 euthanasia at the end of the study duration, and the connective tissue around tumor was resected. The tumor samples were then weighed and cut equally into three sections if the tumor weight over 400 mg. The tumor tissue was prepared for the isolation of tumor-infiltrating lymphocytes (TILs). The rest of one section was fixed in 10% formaldehyde and embedded in paraffin; the other was stored at a temperature below −70° C.
(§2) The tumor samples were dissected into smaller fragments using scalpels and then digested with a cocktail of collagenase, DNase I, and Hyaluronidase (Collagenase #C5138, DNase I #D5025, Hyaluronidase #H6254, SigmaAldrich) for at least 2 hours.
(§3) Cells were stained with the fluorescently conjugated surface antibodies and incubated for 30 minutes at 4° C., and then resuspended in staining buffer for flow cytometric analysis. Flow cytometry was done using a Navios EX Flow Cytometer (Beckman Coulter). Data were analyzed using the Kaluza Analysis Software (Beckman Coulter).

[2] = system: CTL cells (CD45^+CD8^+ T cells) in tumor-infiltrating lymphocytes; assay: Example 2: flow cytometry, percentage of CTL cells in TILs; type: in vivo, Mus musculus
Experimental: as §1, §2, §3

[3] = G2: OBI-3424 0.3 mg/kg, 0.3 mg/kg
[4] = G2: OBI-3424 0.3 mg/kg, 0.3 mg/kg, group mean
[5] = G3: OBI-3424 1 mg/kg, 1 mg/kg, group mean

## C[C@H](OP(=O)(N1CC1)N1CC1)c1ccc([N+](=O)[O-])c(Oc2cccc(C(=O)N(C)C)c2)c1 [OBI-3424, (S)-1-(3-(3-N,N-dimethylaminocarbonyl)phenoxyl-4-mtrophenyl)-1-ethyl-N,N′-bis(ethylene)phosphoramidate]
[1]; [3]
  CD45^− live cells (CD45^−ViaKrome405^weak) Cell count: 39.37 ×10^5 and 25.28 ×10^5 and 83.81 ×10^5 and 1.35 ×10^5 and 29.90 ×10^5 and 5.87 ×10^5
  Calreticulin cells (CD45^− Calreticulin^+) Cell count: 5.54 ×10^5 and 1.27 ×10^5 and 10.26 ×10^5 and 0.06 ×10^5 and 1.11 ×10^5 and 0.19 ×10^5
  Total CD45^− cells (CD45^−) Cell count: 70.58 ×10^5 and 45.89 ×10^5 and 130.41 ×10^5 and 2.18 ×10^5 and 65.25 ×10^5 and 10.35 ×10^5
  CD45^− live cells (CD45^−ViaKrome405^weak) CTL Gated %: 55.78% and 55.07% and 64.29% and 61.79% and 45.83% and 56.69%
  CD45^− live cells (CD45^−ViaKrome405^weak) Total %: 20.24% and 12.36% and 15.52% and 6.30% and 12.13% and 8.10%
  Calreticulin cells (CD45^− Calreticulin^+) CTL Gated %: 14.09% and 5.02% and 12.21% and 4.51% and 3.69% and 3.21%
  Calreticulin cells (CD45^− Calreticulin^+) Total %: 2.85% and 0.62% and 1.90% and 0.28% and 0.45% and 0.26%
  Total CD45^− cells (CD45^−) CD45^+ Gated %: 50.59% and 29.66% and 28.87% and 12.41% and 31.01% and 21.40%
  Total CD45^− cells (CD45^−) Total %: 36.29% and 22.44% and 24.15% and 10.20% and 26.47% and 14.28%
[1]; [4]
  CD45^− live cells (CD45^−ViaKrome405^weak) Cell count: 30.93 ×10^5
  Calreticulin cells (CD45^− Calreticulin^+) Cell count: 3.07 ×10^5
  Total CD45^− cells (CD45^−) Cell count: 54.11 ×10^5
  CD45^− live cells (CD45^−ViaKrome405^weak) CTL Gated %: 56.58%
  CD45^− live cells (CD45^−ViaKrome405^weak) Total %: 12.44%
  Calreticulin cells (CD45^− Calreticulin^+) CTL Gated %: 7.12%
  Calreticulin cells (CD45^− Calreticulin^+) Total %: 1.06%
  Total CD45^− cells (CD45^−) CD45^+ Gated %: 28.99%
  Total CD45^− cells (CD45^−) Total %: 22.31%
[1]; G3: OBI-3424 1 mg/kg, 1 mg/kg
  CD45^− live cells (CD45^−ViaKrome405^weak) Cell count: 1.72 ×10^5 and 9.67 ×10^5 and 7.88 ×10^5 and 9.07 ×10^5 and 5.22 ×10^5 and 6.72 ×10^5
  Calreticulin cells (CD45^− Calreticulin^+) Cell count: 0.05 ×10^5 and 0.25 ×10^5 (2×) and 0.88 ×10^5 and 0.19 ×10^5 and 0.12 ×10^5
  Total CD45^− cells (CD45^−) Cell count: 2.45 ×10^5 and 15.22 ×10^5 and 11.73 ×10^5 and 11.65 ×10^5 and 8.38 ×10^5 and 8.94 ×10^5
  CD45^− live cells (CD45^−ViaKrome405^weak) CTL Gated %: 70.28% and 63.52% and 67.13% and 77.84% and 62.30% and 75.12%
  CD45^− live cells (CD45^−ViaKrome405^weak) Total %: 5.94% and 7.66% and 11.16% and 9.18% and 7.02% and 8.30%
  Calreticulin cells (CD45^− Calreticulin^+) CTL Gated %: 2.90% and 2.61% and 11.18% and 2.75% and 3.65% and 1.83%
  Calreticulin cells (CD45^− Calreticulin^+) Total %: 0.17% and 0.20% and 1.25% and 0.25% and 0.26% and 0.15%
  Total CD45^− cells (CD45^−) CD45^+ Gated %: 9.67% and 13.99% and 19.95% and 13.15% and 12.84% and 12.22%
  Total CD45^− cells (CD45^−) Total %: 8.45% and 12.06% and 16.62% and 11.79% and 11.27% and 11.04%
[1]; [5]
  CD45^− live cells (CD45^−ViaKrome405^weak) Cell count: 6.71 ×10^5
  Calreticulin cells (CD45^− Calreticulin^+) Cell count: 0.29 ×10^5
  Total CD45^− cells (CD45^−) Cell count: 9.73 ×10^5
  CD45^− live cells (CD45^−ViaKrome405^weak) CTL Gated %: 69.37%
  CD45^− live cells (CD45^−ViaKrome405^weak) Total %: 8.21%
  Calreticulin cells (CD45^− Calreticulin^+) CTL Gated %: 4.15%
  Calreticulin cells (CD45^− Calreticulin^+) Total %: 0.38%
  Total CD45^− cells (CD45^−) CD45^+ Gated %: 13.64%
  Total CD45^− cells (CD45^−) Total %: 11.87%
[2]; Example 2, mean±SEM, OBI-3424 1 mg/kg, alone (G3) or with anti-hPD-1 (G6), vehicle 15.53±5.66%
  CTL cells (CD45^+CD8^+ T cells) in TILs: 33.50±3.38%
[2]; G2: 0.3 mg/kg, group mean
  CD25^+ CTL cells (CD45^+ CD8^+CD25^+) Cell count (×10^5): 2.93 ×10^5
  CD25^+ CTL cells (CD45^+CD8^+ CD25^+) CTL Gated %: 5.60%
  CD25^+ CTL cells (CD45^+CD8^+ CD25^+) Total %: 1.33%
  CD69^+ CTL cells (CD45^+ CD8^+CD69^+) CTL Gated %: 69.71%
  CD69^+ CTL cells (CD45^+ CD8^+CD69^+) Cell count (×10^5): 40.97 ×10^5
  CD69^+ CTL cells (CD45^+ CD8^+CD69^+) Total %: 20.23%
  CTL cells (CD45^+CD8^+) CD45^+ Gated %: 60.54%
  CTL cells (CD45^+CD8^+) Cell count (×10^5): 55.19 ×10^5
  CTL cells (CD45^+CD8^+) Total %: 26.12%
  Granzyme B^+ CTL cells (CD45^+ CD8^+GrB+) CTL Gated %: 90.76%
  Granzyme B^+ CTL cells (CD45^+ CD8^+GrB+) Cell count (×10^5): 61.54 ×10^5
  Granzyme B^+ CTL cells (CD45^+ CD8^+GrB+) Total %: 26.31%
  IFN-γ^+ CTL cells (CD45^+ CD8^+ IFN-γ^+) CTL Gated %: 0.89%
  IFN-γ^+ CTL cells (CD45^+ CD8^+ IFN-γ^+) Cell count (×10^5): 0.47 ×10^5
  IFN-γ^+ CTL cells (CD45^+ CD8^+ IFN-γ^+) Total %: 0.20%
  PD-1^+ CTL cells (CD45^+CD8^+ PD-1^+) CTL Gated %: 75.96%
  PD-1^+ CTL cells (CD45^+CD8^+ PD-1^+) Cell count (×10^5): 42.52 ×10^5
  PD-1^+ CTL cells (CD45^+CD8^+ PD-1^+) Total %: 18.42%
[2]; G2: 0.3 mg/kg, individual mice
  CD25^+ CTL cells (CD45^+ CD8^+CD25^+) Cell count (×10^5): 1.91 ×10^5 and 3.89 ×10^5 and 7.72 ×10^5 and 0.35 ×10^5 and 3.13 ×10^5 and 0.58 ×10^5
  CD25^+ CTL cells (CD45^+CD8^+ CD25^+) CTL Gated %: 11.79% and 5.81% and 3.87% and 3.93% and 4.86% and 3.31%
  CD25^+ CTL cells (CD45^+CD8^+ CD25^+) Total %: 0.98% and 1.90% and 1.43% and 1.62% and 1.27% and 0.80%
  CD69^+ CTL cells (CD45^+ CD8^+CD69^+) CTL Gated %: 62.46% and 73.01% and 61.79% and 85.14% and 68.69% and 67.19%
  CD69^+ CTL cells (CD45^+ CD8^+CD69^+) Cell count (×10^5): 10.13 ×10^5 and 48.79 ×10^5 and 123.34 ×10^5 and 7.53 ×10^5 and 44.17 ×10^5 and 11.85 ×10^5
  CD69^+ CTL cells (CD45^+ CD8^+CD69^+) Total %: 5.21% and 23.86% and 22.84% and 35.19% and 17.92% and 16.34%
  CTL cells (CD45^+CD8^+) CD45^+ Gated %: 43.92% and 72.25% and 73.64% and 66.97% and 60.34% and 46.12%
  CTL cells (CD45^+CD8^+) Cell count (×10^5): 15.97 ×10^5 and 54.79 ×10^5 and 171.72 ×10^5 and 9.75 ×10^5 and 66.26 ×10^5 and 12.67 ×10^5
  CTL cells (CD45^+CD8^+) Total %: 8.21% and 26.79% and 31.80% and 45.54% and 26.88% and 17.47%
  Granzyme B^+ CTL cells (CD45^+ CD8^+GrB+) CTL Gated %: 66.16% and 97.44% and 95.50% and 85.88% and 99.84% and 99.74%
  Granzyme B^+ CTL cells (CD45^+ CD8^+GrB+) Cell count (×10^5): 11.61 ×10^5 and 69.08 ×10^5 and 196.18 ×10^5 and 6.59 ×10^5 and 69.09 ×10^5 and 16.66 ×10^5
  Granzyme B^+ CTL cells (CD45^+ CD8^+GrB+) Total %: 5.97% and 33.78% and 36.33% and 30.78% and 28.03% and 22.98%
  IFN-γ^+ CTL cells (CD45^+ CD8^+ IFN-γ^+) CTL Gated %: 2.04% and 0.66% and 0.54% and 0.36% and 1.10% and 0.64%
  IFN-γ^+ CTL cells (CD45^+ CD8^+ IFN-γ^+) Cell count (×10^5): 0.35 ×10^5 and 0.47 ×10^5 and 1.08 ×10^5 and 0.03 ×10^5 and 0.76 ×10^5 and 0.11 ×10^5
